# Laboratory results as given in patent publication US12662491B2 (Redona Therapeutics, Inc., priority 2020, dated 2026).
# Target: T1, Zcchc11 enzyme (Homo sapiens, UniProt Q5TAX3)
# T1 construct: made in house; host or cells: HEK293 cells (Zcchc11); E. coli Rosetta II (LIN28A)
# T1 sequence (Q5TAX3 212-1420): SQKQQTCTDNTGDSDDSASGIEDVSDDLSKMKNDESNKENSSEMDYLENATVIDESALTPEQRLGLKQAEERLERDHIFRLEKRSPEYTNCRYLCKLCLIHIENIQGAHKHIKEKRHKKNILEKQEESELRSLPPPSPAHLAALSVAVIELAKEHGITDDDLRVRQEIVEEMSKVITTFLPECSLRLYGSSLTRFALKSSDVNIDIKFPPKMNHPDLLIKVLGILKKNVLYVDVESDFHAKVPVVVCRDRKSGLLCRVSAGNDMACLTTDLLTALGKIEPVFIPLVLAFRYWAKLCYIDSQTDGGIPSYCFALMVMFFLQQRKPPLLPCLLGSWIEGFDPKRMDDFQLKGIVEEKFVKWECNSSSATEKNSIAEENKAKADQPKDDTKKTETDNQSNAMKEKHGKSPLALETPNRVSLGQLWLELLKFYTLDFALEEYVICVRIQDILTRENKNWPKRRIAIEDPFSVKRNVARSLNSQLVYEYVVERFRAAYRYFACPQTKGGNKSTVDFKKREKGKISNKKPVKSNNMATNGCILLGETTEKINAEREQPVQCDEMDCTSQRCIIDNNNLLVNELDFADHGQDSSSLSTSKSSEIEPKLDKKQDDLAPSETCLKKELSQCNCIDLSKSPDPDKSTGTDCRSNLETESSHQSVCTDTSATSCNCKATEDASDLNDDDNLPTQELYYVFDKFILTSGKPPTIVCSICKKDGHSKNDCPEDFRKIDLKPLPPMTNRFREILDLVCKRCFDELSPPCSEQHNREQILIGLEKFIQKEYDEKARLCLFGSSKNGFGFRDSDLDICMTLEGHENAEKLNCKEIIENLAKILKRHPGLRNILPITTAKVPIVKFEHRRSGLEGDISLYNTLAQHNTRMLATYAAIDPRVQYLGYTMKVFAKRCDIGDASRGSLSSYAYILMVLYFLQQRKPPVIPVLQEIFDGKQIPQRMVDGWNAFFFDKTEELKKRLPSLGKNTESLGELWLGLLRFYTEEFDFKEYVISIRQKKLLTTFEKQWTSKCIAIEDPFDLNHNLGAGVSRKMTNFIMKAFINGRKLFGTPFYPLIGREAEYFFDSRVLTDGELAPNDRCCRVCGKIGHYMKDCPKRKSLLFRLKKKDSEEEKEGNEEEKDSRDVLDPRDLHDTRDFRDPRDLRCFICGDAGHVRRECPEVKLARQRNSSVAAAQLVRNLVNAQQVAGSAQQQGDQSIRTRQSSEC
# Experiment: TUTase assay (Zcchc11 assay, Lin28a-dependent polyuridylation of pre-let-7)
# Format: biochemical
# Conditions: Lin28a-dependent Zcchc11 (Z11) TUTase activity; read-out: Potency Lin28a-dep Z11 IC50
# Outline: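 Readout: time-dependent quench of 5′-fluorescein pre-let-7 (2 nM) as 3′-rhodamine A20 probe anneals to poly(U) tails. Enzyme 0.2 nM Zcchc11 (res. 212-1420), LIN28A 10 nM, UTP 5 uM; pH 7.3 HEPES, 150 mM KCl, 5 mM MgCl2, RT. 4-parameter IC50; 100% = DMSO, 0% = no UTP.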
row,IC50 [nM],Molecule
1,10000 to 50000,"O=C(O)c1cn(-c2ccccc2)c2c(F)c(N3CCC[C@H]3COc3ccccn3)c(F)cc2c1=O [a, (S)-6,8-difluoro-4-oxo-1-phenyl-7-(2-((pyridin-2-yloxy)methyl)pyrrolidin-1-yl)-1,4-dihydro-quinoline-3-carboxylic acid]"
2,≤ 1000,"rac-6- chloro-7- ((2R,3S)-2- (((3- chloropyridin- 2- yl)oxy) methyl)-3- methyl- pyrrolidin-1- yl)-1-(6-(3- (dimethyl- amino) azetidin-1- yl)pyridin- 3-yl)-4- oxo-1,4- dihydro- quinoline-3- carboxylic acic [Compound 260]"

# Same assay, conditions: Lin28a-dependent Zcchc11 (Z11) TUTase assay; read-out: Potency Lin28a-dep Z11 IC50
row,IC50 [nM],Molecule
1,≤ 1000,"COc1ccnc(OC[C@H]2C[C@H]3C[C@H]3N2c2nc3c(cc2Cl)c(=O)c(C(=O)O)cn3-c2ccc(N3CC(N(C)C)C3)nc2)c1Cl [Example 679, 6-chloro-7-((1R,3R,5R)-3-(((3-chloro-4-methoxypyridin-2-yl)oxy)methyl)-2-azabicyclo[3.1.0]hexan-2-yl)-1-(6-(3-(dimethylamino)azetidin-1-yl)pyridin-3-yl)-4-oxo-1,4-dihydro-1,8-naphthyridine-3-carboxylic acid]"
2,≤ 1000,"COc1ccnc(OC[C@H]2C[C@H]3C[C@H]3N2c2cc3c(cc2F)c(=O)c(C(=O)O)cn3-c2ccc(N3CC(N(C)C)C3)nc2)c1C [Example 681, 1-(6-(3-(dimethylamino)azetidin-1-yl)pyridin-3-yl)-6-fluoro-7-((1R,3R,5R)-3-(((4-methoxy-3-methylpyridin-2-yl)oxy)methyl)-2-azabicyclo[3.1.0]hexan-2-yl)-4-oxo-1,4-dihydroquinoline-3-carboxylic acid]"
3,≤ 1000,"COc1ccc(C)c(OC[C@H]2C[C@H]3C[C@H]3N2c2cc3c(cc2F)c(=O)c(C(=O)O)cn3-c2ccc(N3CC(N(C)C)C3)nc2)n1 [Example 682, 1-(6-(3-(dimethylamino)azetidin-1-yl)pyridin-3-yl)-6-fluoro-7-((1R,3R, 5R)-3-(((6-methoxy-3-methylpyridin-2-yl)oxy)methyl)-2-azabicyclo[3.1.0]hexan-2-yl)-4-oxo-1,4-dihydroquinoline-3-carboxylic acid]"
4,≤ 1000,"COc1ccnc(OC[C@H]2C[C@H]3C[C@H]3N2c2cc3c(cc2Cl)c(=O)c(C(=O)O)cn3-c2ccc(N3CC(N(C)C)C3)nc2)c1C [Example 683, 6-chloro-1-(6-(3-(dimethylamino)azetidin-1-yl)pyridin-3-yl)-7-((1R,3R,5R)-3-(((4-methoxy-3-methylpyridin-2-yl)oxy)methyl)-2-azabicyclo[3.1.0]hexan-2-yl)-4-oxo-1,4-dihydroquinoline-3-carboxylic acid]"
5,≤ 1000,"COc1ccc(Cl)c(OC[C@H]2[C@@H](OC)CCN2c2cc3c(cc2Cl)c(=O)c(C(=O)O)cn3-c2ccc(N3CC(N(C)C)C3)nc2)n1 [Example 684, 6-chloro-7-((2S,3S)-2-(((3-chloro-6-methoxypyridin-2-yl)oxy)methyl)-3-methoxypyrrolidin-1-yl)-1-(6-(3-(dimethylamino)azetidin-1-yl)pyridin-3-yl)-4-oxo-1,4-dihydroquinoline-3-carboxylic acid]"
6,≤ 1000,"COc1ccnc(OC[C@H]2C[C@H]3C[C@H]3N2c2cc3c(cc2Cl)c(=O)c(C(=O)O)cn3-c2ccc(N3CC(N(C)C)C3)nc2)c1F [Example 685, 6-chloro-1-(6-(3-(dimethylamino)azetidin-1-yl)pyridin-3-yl)-7-((1R,3R,5R)-3-(((3-fluoro-4-methoxypyridin-2-yl)oxy)methyl)-2-azabicyclo[3.1.0]hexan-2-yl)-4-oxo-1,4-dihydroquinoline-3-carboxylic acid]"
7,≤ 1000,"COc1ccnc(OC[C@H]2C[C@H]3C[C@H]3N2c2cc3c(cc2F)c(=O)c(C(=O)O)cn3-c2ccc(N3CC(N(C)C)C3)nc2)c1F [Example 686, 1-(6-(3-(dimethylamino)azetidin-1-yl)pyridin-3-yl)-6-fluoro-7-((1R,3R, 5R)-3-(((3-fluoro-4-methoxypyridin-2-yl)oxy)methyl)-2-azabicyclo[3.1.0]hexan-2-yl)-4-oxo-1,4-dihydroquinoline-3-carboxylic acid]"
8,≤ 1000,"CN(C)C1CN(c2ccc(-n3cc(C(=O)O)c(=O)c4cc(C#N)c(N5CCC[C@]5(C)COc5ncccc5F)cc43)cn2)C1 [Example 687, (R)-6-cyano-1-(6-(3-(dimethylamino)azetidin-1-yl)pyridin-3-yl)-7-(2-(((3-fluoropyridin-2-yl)oxy)methyl)-2-methylpyrrolidin-1-yl)-4-oxo-1,4-dihydroquinoline-3-carboxylic acid]"
